How the values were obtained:
[1] = tested on: Ehrlich Ascites carcinoma; details: Ehrlich Ascites carcinoma in mice; Chem. & Pharm. Bull. (Tokyo) 8, 1021-1028 (1960); cited from earlier work
L1210 leukemia = assay: NCI 3LE31, i.p.-implanted L1210 lymphoid leukemia; assay type: in vivo, DBA/2 mice
Protocol: The spectrum of antitumor activity of the compound of Example 1 was determined employing a number of standard National Cancer Institute (NCI) protocols. The antitumor activity was determined in vivo against several different tumors, employing various treatment schedules and routes of administration.
Samples of the test compounds of Examples 1-10 and a number of structurally-related control compounds were tested in accordance with National Cancer Institute test protocol 3LE31 (NCI Protocol 1.100, Cancer Chemotherapy Reports Part 3, Vol. 3, No. 2, September 1972) to determine the effects of the several compounds on i.p.-implanted L1210 leukemia (J. Nat'l. Cancer Inst. 13(5):1328, 1953). Each test involved implantation of the leukemia cells in six DBA/2 mice, one sex per experiment, the male mice weighing a minimum of 18 grams and the female mice weighing a minimum of 17 grams, and all of the test animals being within a three gram weight range. The test compound was administered by i.p. injections, in 0.1 ml. doses of diluted ascitic fluid (10^5 cells per dose), commencing one day after the tumor implant and continuing daily for nine days.
The test animals were weighed and survivors recorded on a regular basis during a thirty day test period. The ratio of survival time for the treated and control animals (T/C) was determined as a percentage.
The tests were carried out at varying dosage levels and with varying numbers of repetitions, depending upon the results obtained with each test compoud. […] A reproducible T/C of 150% or higher is considered significant activity.
The number of mice "cured", viz., those surviving from each animal test group after the thirty day test period, is indicated in parenthesis following the T/C percentage data in Table III below: […]

[2] = 25 mg/kg i.p. daily for nine days
[3] = 50 mg/kg i.p. daily for nine days
[4] = 100 mg/kg i.p. daily for nine days
[5] = 200 mg/kg i.p. daily for nine days
[6] = Mus musculus, L1210, ip, 25 mg/kg i.p. daily for nine days, read-out: T/C % (survival time treated/control)
[7] = Mus musculus, L1210, ip, 50 mg/kg i.p. daily for nine days, read-out: T/C % (survival time treated/control)
[8] = Mus musculus, L1210, ip, 100 mg/kg i.p. daily for nine days, read-out: T/C % (survival time treated/control)

In the case of `Cn1c(O)c(C(=O)Nc2ccccc2)c(=O)[nH]c1=O` [1-methyl derivative], the “anti-tumor activity (in words)” value [1] is given as “neither of its 1-methyl or 1-phenyl-substituted derivatives, exhibited anti-tumor activity”.

For `O=C1NC(=O)C(C(=O)Nc2ccccc2)C(=O)N1` [5-phenylcarbamoylbarbituric acid], the “anti-tumor activity (in words)” value [1] is given as “exhibited anti-tumor activity”.

With `Cn1c(=S)[nH]c(O)c(C(=O)Nc2ccccc2)c1=O` [Control H] the “T/C % (survival time treated/control)” value (L1210 leukemia; [2]) was “Toxic”, the “T/C % (survival time treated/control)” value (L1210 leukemia; [3]) was “Toxic” and the “T/C % (survival time treated/control)” value (L1210 leukemia; [4]) was “Toxic”. For the same compound, the “T/C % (survival time treated/control)” value (L1210 leukemia; [5]) was “Toxic”, the response vs control in vivo at 1.56 mg/kg (L1210 leukemia; Mus musculus, L1210, ip, 1.56 mg/kg i.p. daily for nine days, read-out: T/C % (survival time treated/control)) was 97% and the response vs control in vivo at 3.12 mg/kg (L1210 leukemia; Mus musculus, L1210, ip, 3.12 mg/kg i.p. daily for nine days, read-out: T/C % (survival time treated/control)) was 98%. It also gave a response vs control in vivo at 6.25 mg/kg (L1210 leukemia; Mus musculus, L1210, ip, 6.25 mg/kg i.p. daily for nine days, read-out: T/C % (survival time treated/control)) of 98% and a response vs control in vivo at 12.5 mg/kg (L1210 leukemia; Mus musculus, L1210, ip, 12.5 mg/kg i.p. daily for nine days, read-out: T/C % (survival time treated/control)) of 98%.

`CC(C)c1cccc(C(C)C)c1NC(=O)c1c(O)n(-c2ccccc2)c(=S)n(-c2ccccc2)c1=O` [Control U] gave a response vs control in vivo at 25 mg/kg (L1210 leukemia; [6]) of 101%, a response vs control in vivo at 50 mg/kg (L1210 leukemia; [7]) of 100% and a response vs control in vivo at 100 mg/kg (L1210 leukemia; [8]) of 104%. The response vs control in vivo at 200 mg/kg (L1210 leukemia; Mus musculus, L1210, ip, 200 mg/kg i.p. daily for nine days, read-out: T/C % (survival time treated/control)) was 112%.

With `Cn1c(O)c(C(=O)Nc2ccccc2)c(=O)n(C)c1=S` [Control K] the “T/C % (survival time treated/control)” value (L1210 leukemia; [5]) was “Toxic”, the response vs control in vivo at 25 mg/kg (L1210 leukemia; [6]) was 107% and the response vs control in vivo at 50 mg/kg (L1210 leukemia; [7]) was 109%. It also gave a response vs control in vivo at 100 mg/kg (L1210 leukemia; [8]) of 121%.

In the case of `O=C(Nc1ccc(F)cc1)c1c(O)[nH]c(=S)[nH]c1=O` [Example 5, N-(4-fluorophenyl)-1,2,3,4-tetrahydro-6-hydroxy-4-oxo-2-thioxo-5-pyrimidinecarboxamide], the “T/C % (survival time treated/control)” value (L1210 leukemia; [5]) is reported as “Toxic”, the “activity in i.p.-implanted lymphoid leukemia test (in words)” value (L1210 leukemia; 3LE31, reproducible T/C of 150% or higher is considered significant activity) is reported as “With the exception of the compound of Example 5, the materials of the other examples similarly exhibited significant activity” and the response vs control in vivo at 25 mg/kg (L1210 leukemia; [6]) is reported as 111%. For the same compound, the response vs control in vivo at 50 mg/kg (L1210 leukemia; [7]) was 112% and the response vs control in vivo at 100 mg/kg (L1210 leukemia; [8]) was 133%.

In the case of `O=C(Nc1ccccc1)c1c(O)n(-c2ccccc2)c(=O)[nH]c1=O` [1-phenyl derivative], the “anti-tumor activity (in words)” value [1] is listed as “neither of its 1-methyl or 1-phenyl-substituted derivatives, exhibited anti-tumor activity”.

With `Cc1ccccc1NC(=O)c1c(O)[nH]c(=S)[nH]c1=O` [Example 3, 1,2,3,4-tetrahydro-6-hydroxy-N-(2-methylphenyl)-4-oxo-2-thioxo-5-pyrimidine-carboxamide] the “T/C % (survival time treated/control)” value (L1210 leukemia; [5]) was “Toxic”, the response vs control in vivo at 25 mg/kg (L1210 leukemia; [6]) was 108% and the response vs control in vivo at 50 mg/kg (L1210 leukemia; [7]) was 112%.

In the case of `Cn1c(O)c(C(=O)Nc2ccccc2)c(=O)n(C)c1=S` [Control L], the “T/C % (survival time treated/control)” value (L1210 leukemia; [2]) is reported as 108%, the “T/C % (survival time treated/control)” value (L1210 leukemia; [3]) is reported as “Toxic” and the “T/C % (survival time treated/control)” value (L1210 leukemia; [4]) is reported as “Toxic”. For the same compound, the “T/C % (survival time treated/control)” value (L1210 leukemia; [5]) was “Toxic”.

Reference: patent US4634707A, “5-Pyrimidinecarboxamides and treatment of leukemia and tumors therewith” (Uniroyal Chemical Company, priority 1984, dated 1987)
